Tested on: phosphorylation of Akt
Experiment: Inhibition of phosphorylation of Akt by FAP5-PI3K inhibitors in TGF-β1 stimulated primary HLF (western blot)
Type: cell-based
Settings: 24 hours and 48 hours of incubation, compounds with non-releasable linkers
Description: Primary HLF with passage number #˜8 were seeded in Dulbecco's Modified Eagle Medium (DMEM) with 10% fetal bovine serum (FBS) (˜100,000 cells/well) in 12 well plates to achieve ˜80% confluency. The cells were then starved in DMEM with 0.4% FBS for 24 hours, followed by stimulation by 10 ng/mL transforming growth factor-beta 1 (TGF-β1) for 24 hours.
After stimulation, cells were incubated with the FAP5-PI3K inhibitors for 2 hours, followed by replacement of culture media containing 2 ng/mL TGF-β1 and incubated for 24 hours (see FIG. 21) and 48 hours (see FIG. 22). All wells are added with 0.1% of DMSO as vehicle.
Cells were detached using trypsin and lysed with lysis buffer, proteins from cells were extracted for western blot analysis.

`COc1ncc(-c2ccc3nccc(-c4ccc(COC(=O)NCCNC(=O)CCc5cccc6c5CN(C(=O)C[C@@H]5C[C@@H](C(=O)N7CC(F)(F)C[C@H]7C#N)NC5=O)C6)nc4)c3c2)cc1NS(=O)(=O)c1ccc(F)cc1F` [FAP5-Carbamate-PI3ki] was tested, and the “inhibition of phosphorylation of Akt (pAkt normalized to tAkt)” value was “consistently performed better than FAP5-Ester-PI3Ki and FAP5-PI3Ki-NR”.

From US20240238458A1, “COMPOUNDS TARGETING FIBROBLAST-ACTIVATION PROTEIN AND METHODS OF USE THEREOF” (Purdue Research Foundation, priority 2021, published 2024)
